These results are taken from patent US8288554B2, “Pyridin-3-yl derivatives as immunomodulating agents” (Actelion Pharmaceuticals Ltd., priority 2006, dated 2012).

One test concerns circulating lymphocytes. Description: Assessment of in vivo efficacy: circulating lymphocytes after oral administration. Set-up: species or system rat. As to conditions: 6 h after oral administration of 10 mg/kg, normotensive male Wistar rats, compared to vehicle group. How it is done: The efficacy of the compounds of Formula (I) is assessed by measuring the circulating lymphocytes after oral administration of 3 to 30 mg/kg of a compound of Formula (I) to normotensive male Wistar rats. The animals are housed in climate-controlled conditions with a 12 h-light/dark cycle, and have free access to normal rat chow and drinking water. Blood is collected before and 3, 6 and 24 h after drug administration. Full blood is subjected to hematology using Advia Hematology system (Bayer Diagnostics, Zurich, Switzerland).
All data are presented as mean±SEM. Statistical analyses are performed by analysis of variance (ANOVA) using Statistica (StatSoft) and the Student-Newman-Keuls procedure for multiple comparisons. The null hypothesis is rejected when p<0.05.
Lymphocyte counts 6 h after oral administration have been measured for 6 exemplified compounds and are in the range of −77% to −61% with an average of −68%.
For the compound `Cc1cc(-c2noc(-c3cnc(CC(C)C)c(CC(C)C)c3)n2)cc(C)c1OCC(O)CO` (racemic) [Example 12, (RS)-3-{4-[5-(5,6-Diisobutyl-pyridin-3-yl)-[1,2,4]oxadiazol-3-yl]-2,6-dimethyl-phenoxy}-propane-1,2-diol], the Lymphocyte counts is recorded as −61%. On the same count and under the same terms, then `Cc1cc(-c2noc(-c3cnc(OC(C)C)c(Cl)c3)n2)cc(C)c1OCC(O)CNC(=O)CO` (racemic) [Example 3, N—((RS)-3-{4-[5-(5-chloro-6-isopropoxy-pyridin-3-yl)-[1,2,4]oxadiazol-3-yl]-2,6-dimethyl-phenoxy}-2-hydroxy-propyl)-2-hydroxy-acetamide], with −71%; and `CCc1cc(-c2noc(-c3cnc(CC(C)C)c(C)c3)n2)cc(C)c1OCC(O)CNC(=O)CO` (racemic) [Example 8, N—((RS)-3-{2-Ethyl-4-[5-(6-isobutyl-5-methyl-pyridin-3-yl)-[1,2,4]oxadiazol-3-yl]-6-methyl-phenoxy}-2-hydroxy-propyl)-2-hydroxy-acetamide], with −61%.

The target of a further test is recombinant human S1P1 receptor (Homo sapiens, UniProt P21453). Briefly: GTPγS assay to determine EC50 values. Type of test: biochemical. The following applies: agonist-induced 35S-GTPγS binding, membranes of CHO cells expressing recombinant human S1P1 receptor. The protocol: GTPγS binding assays are performed in 96 well microtiter plates (Nunc, 442587) in a final volume of 200 μl, using membrane preparations of CHO cells expressing recombinant human S1P1 receptor. Assay conditions are 20 mM Hepes (Fluka, 54461), 100 mM NaCl (Fluka, 71378), 5 mM MgCl2 (Fluka, 63064), 0.1% BSA (Calbiochem, 126609), 1 μM GDP (Sigma, G-7127), 2.5% DMSO (Fluka, 41644), […] ^35S-GTPγS (Amersham Biosciences, SJ1320). The pH is 7.4. Test compounds are dissolved and diluted in 100% DMSO and pre-incubated at room temperature for 30 min in 150 μl of the above assay buffer, in the absence of ^35S-GTPγS. After addition of 50 μl of ^35S-GTPγS, the assay is incubated for 1 h at rt. The assay is terminated by transfer of the reaction mixture to a Multiscreen plate (Millipore, MAHFC1H60) using a cell harvester from Packard Biosciences, and the plates are washed with ice-cold 10 mM Na2HPO4/NaH2PO4 (70%/30%), dried, sealed at the bottom and, after addition of 25 μl MicroScint20 (Packard Biosciences, order#6013621), sealed on the top. Membrane-bound ^35S-GTPγS is measured with a TopCount from Packard Biosciences.
recombinant human S1P1 receptor, sequence (P21453 whole entry): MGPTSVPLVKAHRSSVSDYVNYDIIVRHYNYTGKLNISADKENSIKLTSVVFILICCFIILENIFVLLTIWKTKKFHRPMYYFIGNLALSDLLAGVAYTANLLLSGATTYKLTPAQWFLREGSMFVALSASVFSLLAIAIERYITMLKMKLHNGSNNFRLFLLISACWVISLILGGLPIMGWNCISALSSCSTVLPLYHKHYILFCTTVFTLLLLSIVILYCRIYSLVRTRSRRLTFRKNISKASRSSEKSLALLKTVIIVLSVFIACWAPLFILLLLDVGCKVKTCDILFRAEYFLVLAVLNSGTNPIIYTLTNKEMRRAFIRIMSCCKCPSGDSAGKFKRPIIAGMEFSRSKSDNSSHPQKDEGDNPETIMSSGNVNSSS
EC50 is the concentration of agonist inducing 50% of the maximal specific ^35S-GTPγS binding. Specific binding is determined by subtracting non-specific binding from maximal binding. Maximal binding is the amount of cpm bound to the Multiscreen plate in the presence of 10 μM of S1P. Non-specific binding is the amount of binding in the absence of an agonist in the assay.
On to `Cc1cc(-c2nc(-c3cc(C)c(OCC(O)CNC(=O)CO)c(C)c3)no2)cnc1CC(C)C` (racemic) [Example 5, 2-Hydroxy-N—((RS)-2-hydroxy-3-{4-[5-(6-isobutyl-5-methyl-pyridin-3-yl)-[1,2,4]oxadiazol-3-yl]-2,6-dimethyl-phenoxy}-propyl)-acetamide], for which the EC50 turned out to be 2.7 nM. The same measure, in the same setting: then `Cc1cc(-c2noc(-c3cnc(OC(C)C)c(Cl)c3)n2)cc(C)c1OCC(O)CO` (racemic) [Example 1, (RS)-3-{4-[5-(5-chloro-6-isopropoxy-pyridin-3-yl)-[1,2,4]oxadiazol-3-yl]-2,6-dimethyl-phenoxy}-propane-1,2-diol], with 0.6 nM; and `COc1cc(-c2noc(-c3cnc(CC(C)C)c(C)c3)n2)cc(Cl)c1OCC(O)CNC(=O)CO` (stereo not shown) [Example 43], with 4 nM; and `CCc1cc(-c2noc(-c3cnc(OC(C)C)c(C)c3)n2)cc(C)c1CCC(=O)NCCO` [Example 89, 3-{2-Ethyl-4-[5-(6-isopropoxy-5-methyl-pyridin-3-yl)-[1,2,4]oxadiazol-3-yl]-6-methyl-phenyl}-N-(2-hydroxy-ethyl)-propionamide], with 3.5 nM.

Regarding `CCc1cc(-c2noc(-c3cnc(OC(C)C)c(C)c3)n2)cc(C)c1OC[C@@H](O)CNC(=O)CO` [Example 88], the 50% effective concentration (EC50) came to 0.1 nM.

Regarding `Cc1cc(-c2nc(-c3cc(C)c(OCC(O)CNC(=O)CO)c(Cl)c3)no2)cnc1CC(C)C` (stereo not shown) [Example 42], the EC50 was determined as 0.6 nM. Same read-out and setting: then `CCc1cc(-c2nc(-c3cnc(OC(C)C)c(C)c3)no2)cc(C)c1OC[C@@H](O)CO` [Example 92], with 5.1 nM.

By EC50 is commonly meant the concentration at which the effect is half-maximal.
